Organism: Rattus norvegicus
Test: DrugMatrix - Regimen: Daily Repeat
Assay type: toxicity, organism-based, Sprague-Dawley
Set-up: regimen Daily Repeat, gender Male, age 6-8 weeks
Conditions: in vivo, po, route oral GAVAGE, vehicle .5 % CMC; for BASOPHIL / EOSINOPHIL / ERYTHROCYTE COUNT / HEMATOCRIT / HEMOGLOBIN / LEUKOCYTE COUNT / LYMPHOCYTE / MEAN CORPUSCULAR HEMOGLOBIN / MEAN CORPUSCULAR HEMOGLOBIN CONCENTRATION / MEAN CORPUSCULAR VOLUME / MONOCYTE / NEUTROPHIL / PLATELET COUNT: tissue Blood; for ALANINE AMINOTRANSFERASE / ALBUMIN / ALKALINE PHOSPHATASE / ASPARTATE AMINOTRANSFERASE / BLOOD UREA NITROGEN / CHLORIDE / CHOLESTEROL / CREATINE PHOSPHOKINASE / CREATININE / GLUCOSE / PHOSPHORUS / POTASSIUM / SODIUM / TOTAL BILIRUBIN / TOTAL PROTEIN: tissue Plasma
[1] = 0 mg/kg, 72 h, dose level Control, time 3 day
[2] = 0 mg/kg, 120 h, dose level Control, time 5 day
[3] = 0.09 mg/kg, 72 h, dose level Low, time 3 day
[4] = 0.09 mg/kg, 120 h, dose level Low, time 5 day
[5] = 0.9 mg/kg, 72 h, dose level High, time 3 day
[6] = 0.9 mg/kg, 120 h, dose level High, time 5 day

SMILES: CCN1C[C@]2(COC)[C@H](O)C[C@H](OC)[C@@]34[C@@H]5C[C@@]6(O)[C@H](OC(=O)c7ccccc7)[C@@H]5[C@@](OC(C)=O)([C@@H]([C@H](OC)[C@H]23)[C@@H]14)[C@@H](O)[C@@H]6OC [ACONITINE]
- BASOPHIL [1]: 0.68%
- EOSINOPHIL [1]: 0.46%
- ERYTHROCYTE COUNT [1]: 7.15 x10E6/uL
- HEMATOCRIT [1]: 45.44%
- HEMOGLOBIN [1]: 14.1 G/DL
- LEUKOCYTE COUNT [1]: 9.78 x10E3/uL
- LYMPHOCYTE [1]: 84.44%
- MEAN CORPUSCULAR HEMOGLOBIN [1]: 19.72 pg
- MEAN CORPUSCULAR HEMOGLOBIN CONCENTRATION [1]: 31 G/DL
- MEAN CORPUSCULAR VOLUME [1]: 63.66 fL
- MONOCYTE [1]: 2.14%
- NEUTROPHIL [1]: 11.16%
- PLATELET COUNT [1]: 1378.2 x10E3/uL
- ALANINE AMINOTRANSFERASE [1]: 42.33 u/L
- ALBUMIN [1]: 3.8 G/DL
- ALKALINE PHOSPHATASE [1]: 388.17 u/L
- ASPARTATE AMINOTRANSFERASE [1]: 68 u/L
- BLOOD UREA NITROGEN [1]: 16.17 mg/dL
- CHLORIDE [1]: 96.67 MEQ/L
- CHOLESTEROL [1]: 71 mg/dL
- CREATINE PHOSPHOKINASE [1]: 156.17 u/L
- CREATININE [1]: 0.57 mg/dL
- GLUCOSE [1]: 193.67 mg/dL
- PHOSPHORUS [1]: 11.43 mg/dL
- POTASSIUM [1]: 7 MEQ/L
- SODIUM [1]: 140.33 MEQ/L
- TOTAL BILIRUBIN [1]: 0.48 mg/dL
- TOTAL PROTEIN [1]: 6.8 G/DL
- BASOPHIL [2]: 1.47%
- EOSINOPHIL [2]: 1%
- ERYTHROCYTE COUNT [2]: 7.12 x10E6/uL
- HEMATOCRIT [2]: 45.47%
- HEMOGLOBIN [2]: 14.1 G/DL
- LEUKOCYTE COUNT [2]: 11.38 x10E3/uL
- LYMPHOCYTE [2]: 82.57%
- MEAN CORPUSCULAR HEMOGLOBIN [2]: 19.82 pg
- MEAN CORPUSCULAR HEMOGLOBIN CONCENTRATION [2]: 31.02 G/DL
- MEAN CORPUSCULAR VOLUME [2]: 63.88 fL
- MONOCYTE [2]: 2.2%
- NEUTROPHIL [2]: 11.97%
- PLATELET COUNT [2]: 1267 x10E3/uL
- ALANINE AMINOTRANSFERASE [2]: 38 u/L
- ALBUMIN [2]: 3.72 G/DL
- ALKALINE PHOSPHATASE [2]: 391 u/L
- ASPARTATE AMINOTRANSFERASE [2]: 65.83 u/L
- BLOOD UREA NITROGEN [2]: 14.17 mg/dL
- CHLORIDE [2]: 107.67 MEQ/L
- CHOLESTEROL [2]: 61 mg/dL
- CREATINE PHOSPHOKINASE [2]: 148.33 u/L
- CREATININE [2]: 0.57 mg/dL
- GLUCOSE [2]: 177.17 mg/dL
- PHOSPHORUS [2]: 12.07 mg/dL
- POTASSIUM [2]: 7.2 MEQ/L
- SODIUM [2]: 151.5 MEQ/L
- TOTAL BILIRUBIN [2]: 0.58 mg/dL
- TOTAL PROTEIN [2]: 6.72 G/DL
- BASOPHIL [3]: 0.43%
- EOSINOPHIL [3]: 0.4%
- ERYTHROCYTE COUNT [3]: 7.13 x10E6/uL
- HEMATOCRIT [3]: 45.67%
- HEMOGLOBIN [3]: 14.3 G/DL
- LEUKOCYTE COUNT [3]: 11.21 x10E3/uL
- LYMPHOCYTE [3]: 84.83%
- MEAN CORPUSCULAR HEMOGLOBIN [3]: 20.07 pg
- MEAN CORPUSCULAR HEMOGLOBIN CONCENTRATION [3]: 31.3 G/DL
- MEAN CORPUSCULAR VOLUME [3]: 64.07 fL
- MONOCYTE [3]: 2.23%
- NEUTROPHIL [3]: 11.1%
- PLATELET COUNT [3]: 1445.33 x10E3/uL
- ALANINE AMINOTRANSFERASE [3]: 31.33 u/L
- ALBUMIN [3]: 3.93 G/DL
- ALKALINE PHOSPHATASE [3]: 342 u/L
- ASPARTATE AMINOTRANSFERASE [3]: 61.33 u/L
- BLOOD UREA NITROGEN [3]: 14.33 mg/dL
- CHLORIDE [3]: 96.67 MEQ/L
- CHOLESTEROL [3]: 69.33 mg/dL
- CREATINE PHOSPHOKINASE [3]: 136.67 u/L
- CREATININE [3]: 0.57 mg/dL
- GLUCOSE [3]: 209 mg/dL
- PHOSPHORUS [3]: 12.67 mg/dL
- POTASSIUM [3]: 6.4 MEQ/L
- SODIUM [3]: 140.67 MEQ/L
- TOTAL BILIRUBIN [3]: 0.4 mg/dL
- TOTAL PROTEIN [3]: 7.1 G/DL
- BASOPHIL [4]: 0.73%
- EOSINOPHIL [4]: 0.3%
- ERYTHROCYTE COUNT [4]: 7.49 x10E6/uL
- HEMATOCRIT [4]: 47.87%
- HEMOGLOBIN [4]: 14.97 G/DL
- LEUKOCYTE COUNT [4]: 9.72 x10E3/uL
- LYMPHOCYTE [4]: 82.5%
- MEAN CORPUSCULAR HEMOGLOBIN [4]: 20.07 pg
- MEAN CORPUSCULAR HEMOGLOBIN CONCENTRATION [4]: 31.37 G/DL
- MEAN CORPUSCULAR VOLUME [4]: 63.9 fL
- MONOCYTE [4]: 2%
- NEUTROPHIL [4]: 13.77%
- PLATELET COUNT [4]: 1482.33 x10E3/uL
- ALANINE AMINOTRANSFERASE [4]: 38.67 u/L
- ALBUMIN [4]: 3.83 G/DL
- ALKALINE PHOSPHATASE [4]: 409.67 u/L
- ASPARTATE AMINOTRANSFERASE [4]: 66.33 u/L
- BLOOD UREA NITROGEN [4]: 13.33 mg/dL
- CHLORIDE [4]: 107 MEQ/L
- CHOLESTEROL [4]: 62.67 mg/dL
- CREATINE PHOSPHOKINASE [4]: 135.67 u/L
- CREATININE [4]: 0.67 mg/dL
- GLUCOSE [4]: 154.33 mg/dL
- PHOSPHORUS [4]: 12.77 mg/dL
- POTASSIUM [4]: 7.43 MEQ/L
- SODIUM [4]: 151.33 MEQ/L
- TOTAL BILIRUBIN [4]: 0.5 mg/dL
- TOTAL PROTEIN [4]: 6.93 G/DL
- BASOPHIL [5]: 0.57%
- EOSINOPHIL [5]: 0.37%
- ERYTHROCYTE COUNT [5]: 6.91 x10E6/uL
- HEMATOCRIT [5]: 44.07%
- HEMOGLOBIN [5]: 13.83 G/DL
- LEUKOCYTE COUNT [5]: 11.28 x10E3/uL
- LYMPHOCYTE [5]: 85.87%
- MEAN CORPUSCULAR HEMOGLOBIN [5]: 20.03 pg
- MEAN CORPUSCULAR HEMOGLOBIN CONCENTRATION [5]: 31.4 G/DL
- MEAN CORPUSCULAR VOLUME [5]: 63.73 fL
- MONOCYTE [5]: 1.8%
- NEUTROPHIL [5]: 10.03%
- PLATELET COUNT [5]: 1654.67 x10E3/uL
- ALANINE AMINOTRANSFERASE [5]: 36 u/L
- ALBUMIN [5]: 3.73 G/DL
- ALKALINE PHOSPHATASE [5]: 364.67 u/L
- ASPARTATE AMINOTRANSFERASE [5]: 63.33 u/L
- BLOOD UREA NITROGEN [5]: 14 mg/dL
- CHLORIDE [5]: 97.33 MEQ/L
- CHOLESTEROL [5]: 62.67 mg/dL
- CREATINE PHOSPHOKINASE [5]: 126.33 u/L
- CREATININE [5]: 0.5 mg/dL
- GLUCOSE [5]: 187 mg/dL
- PHOSPHORUS [5]: 11.57 mg/dL
- POTASSIUM [5]: 6.97 MEQ/L
- SODIUM [5]: 138.67 MEQ/L
- TOTAL BILIRUBIN [5]: 0.4 mg/dL
- TOTAL PROTEIN [5]: 6.6 G/DL
- BASOPHIL [6]: 0.47%
- EOSINOPHIL [6]: 0.3%
- ERYTHROCYTE COUNT [6]: 7.11 x10E6/uL
- HEMATOCRIT [6]: 44.93%
- HEMOGLOBIN [6]: 13.73 G/DL
- LEUKOCYTE COUNT [6]: 9.26 x10E3/uL
- LYMPHOCYTE [6]: 88.1%
- MEAN CORPUSCULAR HEMOGLOBIN [6]: 19.37 pg
- MEAN CORPUSCULAR HEMOGLOBIN CONCENTRATION [6]: 30.6 G/DL
- MEAN CORPUSCULAR VOLUME [6]: 63.23 fL
- MONOCYTE [6]: 1.83%
- NEUTROPHIL [6]: 9.33%
- PLATELET COUNT [6]: 1288 x10E3/uL
- ALANINE AMINOTRANSFERASE [6]: 40.33 u/L
- ALBUMIN [6]: 3.67 G/DL
- ALKALINE PHOSPHATASE [6]: 314 u/L
- ASPARTATE AMINOTRANSFERASE [6]: 66 u/L
- BLOOD UREA NITROGEN [6]: 12.33 mg/dL
- CHLORIDE [6]: 108.33 MEQ/L
- CHOLESTEROL [6]: 66 mg/dL
- CREATINE PHOSPHOKINASE [6]: 136 u/L
- CREATININE [6]: 0.63 mg/dL
- GLUCOSE [6]: 161 mg/dL
- PHOSPHORUS [6]: 12.37 mg/dL
- POTASSIUM [6]: 7.3 MEQ/L
- SODIUM [6]: 151.67 MEQ/L
- TOTAL BILIRUBIN [6]: 0.33 mg/dL
- TOTAL PROTEIN [6]: 6.57 G/DL

Reference: ChEMBL document CHEMBL3885881, “DrugMatrix”
